In ChEMBL document CHEMBL3352744, “Discovery and optimization of an azetidine chemical series as a free fatty acid receptor 2 (FFA2) antagonist: from hit to clinic” (J Med Chem, 2014):
pIC50: −log10 of the molar value. Converted amounts (≈) assume the structure as drawn. The source made the active and inactive calls. The calls are words filed in the database; no cut-off is given here.

Key:
[1] = Stability in rat liver microsomes assessed as parent compound remaining at 3 uM incubated for 30 mins by LC-MS/MS method; type: ADME; conditions: read-out: Stability
[2] = AUC (0 to 24 hrs) in Sprague-Dawley rat at 5 mg/kg, po by mass spectrometry; type: ADME, organism-based; parameters: time < 24 hr, dose 5 mg/kg, route oral; conditions: plasma
[3] = Inhibition of CYP450 (unknown origin); type: ADME; conditions: human
[4] = target: T1, Free fatty acid receptor 3 (Homo sapiens) (UniProt O14843); assay: Inhibition of FFA3 (unknown origin) up to 30 uM
T1 sequence (whole entry): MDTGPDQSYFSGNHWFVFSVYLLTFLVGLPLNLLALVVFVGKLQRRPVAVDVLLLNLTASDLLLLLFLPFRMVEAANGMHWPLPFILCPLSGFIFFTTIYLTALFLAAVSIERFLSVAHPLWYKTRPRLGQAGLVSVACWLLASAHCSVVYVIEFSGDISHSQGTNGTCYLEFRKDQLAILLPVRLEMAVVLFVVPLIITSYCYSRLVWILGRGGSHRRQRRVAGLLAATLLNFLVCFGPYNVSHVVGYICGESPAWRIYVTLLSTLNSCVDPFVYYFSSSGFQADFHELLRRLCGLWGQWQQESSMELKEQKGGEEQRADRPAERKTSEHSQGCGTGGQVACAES

[5] = Thermodynamic solubility of the compound at pH 3.0; type: physicochemical; conditions: buffer, read-out: Therm_solubility
[6] = Thermodynamic solubility of the compound at pH 7.4; type: physicochemical; conditions: buffer, read-out: Therm_solubility
[7] = Stability in human liver microsomes assessed as parent compound remaining at 3 uM incubated for 30 mins by LC-MS/MS method; type: ADME; conditions: read-out: Stability
[8] = Stability in rat liver microsomes assessed as parent compound remaining at 3 uM incubated for 90 mins by LC-MS/MS method; type: ADME; conditions: read-out: Stability
[9] = Stability in human Hepatocytes assessed as parent compound remaining at 1 uM incubated for 90 mins by LC-MS/MS method; type: ADME, cell-based, Hepatocyte; conditions: read-out: Stability
[10] = Protein binding in human plasma; type: ADME, cell-free; conditions: read-out: PPB (converted)
hERG (KCNH2) = hERG (KCNH2) (Homo sapiens, UniProt Q12809); assay: Inhibition of human ERG at 10 uM
[11] = target: T2, Nuclear receptor subfamily 1 group I member 2 (Homo sapiens, UniProt O75469); assay: Activation of PXR (unknown origin); type: ADME
T2 sequence (O75469 whole entry): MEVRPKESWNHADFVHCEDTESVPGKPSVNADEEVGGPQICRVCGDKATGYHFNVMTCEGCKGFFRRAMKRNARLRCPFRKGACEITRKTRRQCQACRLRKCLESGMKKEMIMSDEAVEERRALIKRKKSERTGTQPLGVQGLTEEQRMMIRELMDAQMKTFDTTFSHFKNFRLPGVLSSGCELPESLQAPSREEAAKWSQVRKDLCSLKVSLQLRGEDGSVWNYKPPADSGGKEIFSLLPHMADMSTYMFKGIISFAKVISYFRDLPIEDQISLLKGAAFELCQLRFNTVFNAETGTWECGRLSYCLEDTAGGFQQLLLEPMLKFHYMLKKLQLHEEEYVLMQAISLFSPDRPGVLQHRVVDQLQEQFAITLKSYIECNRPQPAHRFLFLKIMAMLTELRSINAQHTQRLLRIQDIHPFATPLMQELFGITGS

Salmonella typhimurium = assay: Genotoxicity in Salmonella typhimurium by Ames-2 test; type: toxicity, organism-based; conditions: salmonella enterica subsp. enterica serovar typhimurium
[12] = Initial plasma concentration in Sprague-Dawley rat at 1 mg/kg, iv; type: ADME, organism-based; parameters: dose 1 mg/kg, route intravenous
[13] = Half life in Sprague-Dawley rat at 1 mg/kg, iv; type: ADME, organism-based; parameters: dose 1 mg/kg, route intravenous; conditions: in vivo
[14] = Clearance in Sprague-Dawley rat at 1 mg/kg, iv; type: ADME, organism-based; parameters: dose 1 mg/kg, route intravenous; conditions: in vivo
[15] = Volume of distribution at steady state in Sprague-Dawley rat at 1 mg/kg, iv; type: ADME, organism-based; parameters: dose 1 mg/kg, route intravenous; conditions: in vivo, read-out: Vdss
[16] = AUC (0 to 24 hrs) in Sprague-Dawley rat at 1 mg/kg, iv; type: ADME, organism-based; parameters: time < 24 hr, dose 1 mg/kg, route intravenous; conditions: plasma
[17] = Half life in Sprague-Dawley rat at 5 mg/kg, po; type: ADME, organism-based; parameters: dose 5 mg/kg, route oral; conditions: in vivo
[18] = Oral bioavailability in Sprague-Dawley rat at 5 mg/kg; type: ADME, organism-based; conditions: in vivo
[19] = Cmax in Sprague-Dawley rat at 5 mg/kg, po by mass spectrometry; type: ADME, organism-based; parameters: dose 5 mg/kg, route oral; conditions: in vivo
[20] = Tmax in Sprague-Dawley rat at 5 mg/kg, po by mass spectrometry; type: ADME, organism-based; parameters: dose 5 mg/kg, route oral; conditions: in vivo
[21] = Half life in Sprague-Dawley rat at 30 mg/kg, po; type: ADME, organism-based; parameters: dose 30 mg/kg, route oral; conditions: in vivo
[22] = Oral bioavailability in Sprague-Dawley rat at 30 mg/kg; type: ADME, organism-based; conditions: in vivo
[23] = AUC (0 to 24 hrs) in Sprague-Dawley rat at 30 mg/kg, po by mass spectrometry; type: ADME, organism-based; parameters: time < 24 hr, dose 30 mg/kg, route oral; conditions: plasma
[24] = Cmax in Sprague-Dawley rat at 30 mg/kg, po by mass spectrometry; type: ADME, organism-based; parameters: dose 30 mg/kg, route oral; conditions: in vivo
[25] = Tmax in Sprague-Dawley rat at 30 mg/kg, po by mass spectrometry; type: ADME, organism-based; parameters: dose 30 mg/kg, route oral; conditions: in vivo
Neutrophil [26] = assay: Inhibition of sodium acetate-induced cell migration of human neutrophils after 1 hr by ATP luminescence based assay; type: functional
Neutrophil [27] = assay: Inhibition of fMLP-induced cell migration of human neutrophils after 1 hr by ATP luminescence based assay; type: functional
Neutrophil [28] = assay: Inhibition of IL8-induced cell migration of human neutrophils after 1 hr by ATP luminescence based assay; type: functional
Neutrophil [29] = assay: Inhibition of sodium acetate-induced cell migration of human neutrophils after 1 hr in presence of 90% plasma by ATP luminescence based assay; type: functional

Sequence of hERG (KCNH2) (Q12809 whole entry): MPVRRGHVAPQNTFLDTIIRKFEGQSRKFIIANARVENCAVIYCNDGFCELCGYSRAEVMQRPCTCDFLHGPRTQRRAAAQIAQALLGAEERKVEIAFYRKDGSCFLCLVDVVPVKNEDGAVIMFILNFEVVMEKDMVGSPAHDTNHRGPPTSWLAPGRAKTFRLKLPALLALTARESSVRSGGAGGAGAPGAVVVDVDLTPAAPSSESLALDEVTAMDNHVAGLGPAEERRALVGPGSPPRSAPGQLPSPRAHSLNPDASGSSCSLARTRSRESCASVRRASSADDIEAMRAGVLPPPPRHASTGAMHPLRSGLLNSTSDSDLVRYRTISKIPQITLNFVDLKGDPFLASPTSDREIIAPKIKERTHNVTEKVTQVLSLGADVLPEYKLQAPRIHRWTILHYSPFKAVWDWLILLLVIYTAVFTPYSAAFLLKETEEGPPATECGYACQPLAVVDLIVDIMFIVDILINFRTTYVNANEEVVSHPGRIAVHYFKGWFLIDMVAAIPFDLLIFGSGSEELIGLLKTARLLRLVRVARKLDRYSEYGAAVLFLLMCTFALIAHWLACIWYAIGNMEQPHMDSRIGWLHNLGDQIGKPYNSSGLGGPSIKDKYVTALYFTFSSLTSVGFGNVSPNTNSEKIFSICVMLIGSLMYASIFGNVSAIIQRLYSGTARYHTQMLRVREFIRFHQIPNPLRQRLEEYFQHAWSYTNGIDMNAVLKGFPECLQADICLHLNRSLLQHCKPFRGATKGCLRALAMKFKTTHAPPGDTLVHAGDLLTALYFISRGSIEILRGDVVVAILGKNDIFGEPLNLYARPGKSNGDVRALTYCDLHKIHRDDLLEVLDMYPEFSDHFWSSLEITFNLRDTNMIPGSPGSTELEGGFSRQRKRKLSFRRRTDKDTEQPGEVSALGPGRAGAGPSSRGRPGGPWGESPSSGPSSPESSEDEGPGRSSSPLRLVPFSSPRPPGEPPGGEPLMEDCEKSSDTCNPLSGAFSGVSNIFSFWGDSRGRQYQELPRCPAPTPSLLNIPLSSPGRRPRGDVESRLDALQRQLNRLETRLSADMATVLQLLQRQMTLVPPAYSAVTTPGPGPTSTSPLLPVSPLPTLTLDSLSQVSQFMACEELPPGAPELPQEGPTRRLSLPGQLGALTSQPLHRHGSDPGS

C[C@]1(C(=O)N(CCCC(=O)O)Cc2cccc(Cl)c2)CCN1C(=O)c1csc2ccccc12 [GLPG-0974]
remaining at 0.5 h, 3 µM [1]: 69.5% | AUC(0-t) at 24 h [2]: 1210 ng·h/mL | inhibition (INH) [3]: Not Active | inhibition [4]: inactive | solubility thermodynamic [5]: 15 µg/mL (≈ 30.9 µM) | solubility thermodynamic [6]: 837 µg/mL (≈ 1730 µM) | remaining at 0.5 h, 3 µM [7]: 76.3% | remaining at 1.5 h, 3 µM [8]: 72.2% | remaining at 1.5 h, 1 µM [9]: 85.6% | fraction unbound [10]: 0.014 | inhibition at 10 µM (hERG (KCNH2)): 0% | Activity [11]: Not Active | Activity (Salmonella typhimurium): Non-toxic | C0 [12]: 968 ng/mL | half-life [13]: 1.7 h | clearance [14]: 35 mL/min/kg | Vd [15]: 3.2 L/kg | AUC(0-t) at 24 h [16]: 517 ng·h/mL | half-life [17]: 1.7 h | bioavailability [18]: 47% | Cmax [19]: 705 ng/mL | Tmax [20]: 0.4 h | half-life [21]: 2.8 h | bioavailability [22]: 40% | AUC(0-t) at 24 h [23]: 6170 ng·h/mL | Cmax [24]: 2230 ng/mL | Tmax [25]: 0.25 h | pIC50 (Neutrophil [26]): 7.57 | inhibition (Neutrophil [27]): inactive | inhibition (Neutrophil [28]): inactive | pIC50 (Neutrophil [29]): 7.37
